# Values of other authors in patent US4127533A, “Novel octapeptides, intermediates therefor, and compositions and methods employing said octapeptides” (priority 1977, dated 1978).
# What was measured:
# rat = details: injected directly into the brain of the rat
# [1] = tested on: brain opiate receptor sites
substance,measurement,setting,value
H-Tyr-Gly-Gly-Phe-Met-OH [methionine enkephalin],analgesic activity,rat,only weak analgesic agent of short duration
same,binding to partially purified brain opiate receptor sites,[1],binds stereo-specifically
